Assay results from US7417156B2, “Orally active, antimalarial, anticancer, artemisinin-derived trioxane dimers” (Johns Hopkins University, priority 2002, dated 2008).

Tests used:
[1] = tested on: chloroquine-sensitive P. falciparum (NF54); test: Antimalarial activity in vitro, [3H]hypoxanthine incorporation; format: cell-based; conditions: Table I; NF54 strain; read-out: IC50
60 cell line panel = format: cell-based
K-562 = test: NCI 60 cell line panel screen (SRB); format: cell-based, human; conditions: K-562 (Leukemia); TGI: PG=0
EKVX = test: NCI 60 cell line panel screen (SRB); format: cell-based, human
HOP-62 = test: NCI 60 cell line panel screen (SRB); format: cell-based, human
HOP-92 = test: NCI 60 cell line panel screen (SRB); format: cell-based, human
NCI-H23 = test: NCI 60 cell line panel screen (SRB); format: cell-based, human; conditions: NCI-H23 (Non-Small Cell Lung Cancer); TGI: PG=0
NCI-H322M = format: cell-based
NCI-H460 = test: NCI 60 cell line panel screen (SRB); format: cell-based, human; conditions: NCI-H460 (Non-Small Cell Lung Cancer); TGI: PG=0
HCT-116 = test: NCI 60 cell line panel screen (SRB); format: cell-based, human; conditions: HCT-116 (Colon Cancer); TGI: PG=0
HT29 = test: NCI 60 cell line panel screen (SRB); format: cell-based, human; conditions: HT29 (Colon Cancer); TGI: PG=0
SK-MEL-28 = test: NCI 60 cell line panel screen (SRB); format: cell-based, human
UACC-257 = test: NCI 60 cell line panel screen (SRB); format: cell-based, human
IGROVI = test: NCI 60 cell line panel screen (SRB); format: cell-based, human
OVCAR-8 = test: NCI 60 cell line panel screen (SRB); format: cell-based, human
SK-OV-3 = test: NCI 60 cell line panel screen (SRB); format: cell-based, human
CAKI-1 = test: NCI 60 cell line panel screen (SRB); format: cell-based, human
RXF 393 = test: NCI 60 cell line panel screen (SRB); format: cell-based, human; conditions: RXF 393 (Renal Cancer); TGI: PG=0
PC-3 = test: NCI 60 cell line panel screen (SRB); format: cell-based, human; conditions: PC-3 (Prostate Cancer); TGI: PG=0
NCI/ADR-RES = test: NCI 60 cell line panel screen (SRB); format: cell-based, human
BT-549 = test: NCI 60 cell line panel screen (SRB); format: cell-based, human; conditions: BT-549 (Breast Cancer); TGI: PG=0
T-47D = test: NCI 60 cell line panel screen (SRB); format: cell-based, human; conditions: T-47D (Breast Cancer); TGI: PG=0
[2] = mean value over the 60 cell line panel

For CC1CCC2C(C)C(CC(COCC(=O)O)CC3OC4OC5(C)CCC6C(C)CCC(C3C)C46OO5)OC3OC4(C)CCC1C32OO4 (stereo not drawn) [Compound 12b, bis-trioxane O-acetic acid], the IC50 [1] was 3.2 nM, the “Log10GI50 Delta” value (60 cell line panel) was 1.57 and the “Log10GI50 Range” value (60 cell line panel) was 4.00. The “Log10LC50 Delta” value (60 cell line panel; 60 cell line panel) was 0.70, the “Log10LC50 Range” value (60 cell line panel; 60 cell line panel) was 0.72 and the “Log10TGI50 Delta” value (60 cell line panel; 60 cell line panel) was 3.49. The “Log10TGI50 Range” value (60 cell line panel; 60 cell line panel) was 4.00, the “growth inhibition in words” value (60 cell line panel; colon cancer KM12, ovarian cancer OVCAR 3, breast cancer MDA-MB-435) was “selectively and strong inhibitory” and the “Log10GI50 MG MID” value (60 cell line panel; mean over panel) was −6.73. For the same compound, the “Log10LC50 MG MID” value (60 cell line panel; [2]) was −4.32 log10M, the “Log10TGI50 MG MID” value (60 cell line panel; [2]) was −4.81 log10M and the Log10TGI50 (K-562) was >−4.30 log10M. For the same compound, the Log10TGI50 (EKVX; EKVX (Non-Small Cell Lung Cancer), TGI: PG=0) was >−4.30 log10M, the Log10GI50 (EKVX; Non-Small Cell Lung Cancer, EKVX) was >−4.30 and the Log10TGI50 (HOP-62; HOP-62 (Non-Small Cell Lung Cancer), TGI: PG=0) was >−4.30 log10M. For the same compound, the Log10GI50 (HOP-62; Non-Small Cell Lung Cancer, HOP-62) was −6.23, the Log10TGI50 (HOP-92; HOP-92 (Non-Small Cell Lung Cancer), TGI: PG=0) was >−4.30 log10M and the Log10GI50 (HOP-92; Non-Small Cell Lung Cancer, HOP-92) was −7.00. The Log10TGI50 (NCI-H23) was >−4.30 log10M, the Log10TGI50 (NCI-H322M; NCI-H322M (Non-Small Cell Lung Cancer), TGI: PG=0) was >−4.30 log10M and the Log10GI50 (NCI-H322M; Non-Small Cell Lung Cancer, NCI-H322M) was −5.03. For the same compound, the Log10TGI50 (NCI-H460) was >−4.30 log10M, the Log10TGI50 (HCT-116) was >−4.30 log10M and the Log10TGI50 (HT29) was >−4.30 log10M. For the same compound, the Log10GI50 (SK-MEL-28; Melanoma, SK-MEL-28) was −4.92, the Log10TGI50 (SK-MEL-28; SK-MEL-28 (Melanoma), TGI: PG=0) was >−4.30 log10M and the Log10GI50 (UACC-257; Melanoma, UACC-257) was >−4.30. For the same compound, the Log10TGI50 (UACC-257; UACC-257 (Melanoma), TGI: PG=0) was >4.30 log10M, the Log10TGI50 (IGROVI; IGROVI (Ovarian Cancer), TGI: PG=0) was >−4.30 log10M and the Log10GI50 (IGROVI; Ovarian Cancer, IGROVI) was −5.06. For the same compound, the Log10TGI50 (OVCAR-8; OVCAR-8 (Ovarian Cancer), TGI: PG=0) was >−4.30 log10M, the Log10GI50 (OVCAR-8; Ovarian Cancer, OVCAR-8) was >−4.30 and the Log10GI50 (SK-OV-3; Ovarian Cancer, SK-OV-3) was >−4.30. For the same compound, the Log10TGI50 (SK-OV-3; SK-OV-3 (Ovarian Cancer), TGI: PG=0) was >−4.30 log10M, the Log10TGI50 (CAKI-1; CAKI-1 (Renal Cancer), TGI: PG=0) was −6.40 log10M and the Log10GI50 (CAKI-1; Renal Cancer, CAKI-1) was −6.91. The Log10TGI50 (RXF 393) was <−8.30 log10M, the Log10TGI50 (PC-3) was −4.92 log10M and the Log10GI50 (NCI/ADR-RES; Breast Cancer, NCI/ADR-RES) was −6.45. For the same compound, the Log10TGI50 (NCI/ADR-RES; NCI/ADR-RES (Breast Cancer), TGI: PG=0) was >−4.30 log10M, the Log10TGI50 (BT-549) was >−4.30 log10M and the Log10TGI50 (T-47D) was >−4.30 log10M.
